Experimental data as given in the NIST ThermoML archive (doi:10.1021/je7003929).

Assay: xn = mol fraction of the nth substance listed
Details: Liquid, Vibrating tube method

c1ccc2sccc2c1 [benzo[b]thiophene] + CCCCCC
Details | mass density [kg/m3]
332.9 K, 1028 kPa, x2 = 0.4495 | 892.5
332.9 K, 2010 kPa, x2 = 0.4495 | 893.2
332.9 K, 3021 kPa, x2 = 0.4495 | 894.1
332.9 K, 4018 kPa, x2 = 0.4495 | 895.3
332.9 K, 5018 kPa, x2 = 0.4495 | 896.2
332.9 K, 6008 kPa, x2 = 0.4495 | 897
332.9 K, 7019 kPa, x2 = 0.4495 | 897.9
332.9 K, 8016 kPa, x2 = 0.4495 | 898.8
332.9 K, 9023 kPa, x2 = 0.4495 | 899.8
332.9 K, 10018 kPa, x2 = 0.4495 | 900.7
332.9 K, 11007 kPa, x2 = 0.4495 | 901.6
332.9 K, 12010 kPa, x2 = 0.4495 | 902.4
332.9 K, 13019 kPa, x2 = 0.4495 | 903.3
332.9 K, 14015 kPa, x2 = 0.4495 | 904.2
332.9 K, 15019 kPa, x2 = 0.4495 | 905
332.9 K, 16002 kPa, x2 = 0.4495 | 905.9
332.9 K, 17014 kPa, x2 = 0.4495 | 906.7
332.9 K, 18017 kPa, x2 = 0.4495 | 907.5
332.9 K, 19023 kPa, x2 = 0.4495 | 908.3
332.9 K, 20028 kPa, x2 = 0.4495 | 909.1
342.55 K, 1028 kPa, x2 = 0.2588 | 982.2
342.55 K, 2013 kPa, x2 = 0.2588 | 983.1
342.55 K, 3013 kPa, x2 = 0.2588 | 983.8
342.55 K, 4017 kPa, x2 = 0.2588 | 984.7
342.55 K, 5024 kPa, x2 = 0.2588 | 985.5
342.55 K, 6012 kPa, x2 = 0.2588 | 986.3
342.55 K, 7004 kPa, x2 = 0.2588 | 987.1
342.55 K, 8017 kPa, x2 = 0.2588 | 987.9
342.55 K, 9012 kPa, x2 = 0.2588 | 988.7
342.55 K, 10016 kPa, x2 = 0.2588 | 989.5
342.55 K, 11015 kPa, x2 = 0.2588 | 990.4
342.55 K, 12022 kPa, x2 = 0.2588 | 991.2
342.55 K, 13030 kPa, x2 = 0.2588 | 992
342.55 K, 14011 kPa, x2 = 0.2588 | 992.8
342.55 K, 15020 kPa, x2 = 0.2588 | 993.6
342.55 K, 16020 kPa, x2 = 0.2588 | 994.3
342.55 K, 17017 kPa, x2 = 0.2588 | 995.1
342.55 K, 18008 kPa, x2 = 0.2588 | 995.8
342.55 K, 19011 kPa, x2 = 0.2588 | 996.6
342.55 K, 20013 kPa, x2 = 0.2588 | 997.4
342.63 K, 1018 kPa, x2 = 0.0629 | 1085.6
342.63 K, 2039 kPa, x2 = 0.0629 | 1086.3
342.63 K, 3009 kPa, x2 = 0.0629 | 1087
342.63 K, 4022 kPa, x2 = 0.0629 | 1087.8
342.63 K, 5025 kPa, x2 = 0.0629 | 1088.5
342.63 K, 5925 kPa, x2 = 0.0629 | 1089.1
342.63 K, 7031 kPa, x2 = 0.0629 | 1089.9
342.63 K, 8009 kPa, x2 = 0.0629 | 1090.6
342.63 K, 9007 kPa, x2 = 0.0629 | 1091.3
342.63 K, 10024 kPa, x2 = 0.0629 | 1092
342.63 K, 11013 kPa, x2 = 0.0629 | 1092.7
342.63 K, 12012 kPa, x2 = 0.0629 | 1093.4
342.63 K, 13000 kPa, x2 = 0.0629 | 1094.1
342.63 K, 14019 kPa, x2 = 0.0629 | 1094.8
342.63 K, 15027 kPa, x2 = 0.0629 | 1095.4
342.63 K, 16019 kPa, x2 = 0.0629 | 1096.1
342.63 K, 17009 kPa, x2 = 0.0629 | 1096.8
342.63 K, 18015 kPa, x2 = 0.0629 | 1097.5
342.63 K, 19019 kPa, x2 = 0.0629 | 1098.2
342.63 K, 20018 kPa, x2 = 0.0629 | 1098.8
342.71 K, 1025 kPa, x2 = 0.9432 | 640.4
342.71 K, 2014 kPa, x2 = 0.9432 | 641.8
342.71 K, 3011 kPa, x2 = 0.9432 | 643.3
342.71 K, 4027 kPa, x2 = 0.9432 | 644.8
342.71 K, 5014 kPa, x2 = 0.9432 | 646.2
342.71 K, 6027 kPa, x2 = 0.9432 | 647.6
342.71 K, 7019 kPa, x2 = 0.9432 | 649
342.71 K, 8015 kPa, x2 = 0.9432 | 650.3
342.71 K, 9010 kPa, x2 = 0.9432 | 651.6
342.71 K, 10003 kPa, x2 = 0.9432 | 652.9
342.71 K, 11017 kPa, x2 = 0.9432 | 654.2
342.71 K, 12006 kPa, x2 = 0.9432 | 655.4
342.71 K, 13024 kPa, x2 = 0.9432 | 656.7
342.71 K, 14021 kPa, x2 = 0.9432 | 657.8
342.71 K, 15006 kPa, x2 = 0.9432 | 659
342.71 K, 16015 kPa, x2 = 0.9432 | 660.2
342.71 K, 17016 kPa, x2 = 0.9432 | 661.3
342.71 K, 18000 kPa, x2 = 0.9432 | 662.4
342.71 K, 19034 kPa, x2 = 0.9432 | 663.6
342.71 K, 20012 kPa, x2 = 0.9432 | 664.6
342.72 K, 1034 kPa, x2 = 0.7491 | 734.5
342.72 K, 2000 kPa, x2 = 0.7491 | 735.8
342.72 K, 3023 kPa, x2 = 0.7491 | 737
342.72 K, 4016 kPa, x2 = 0.7491 | 738.2
342.72 K, 5014 kPa, x2 = 0.7491 | 739.5
342.72 K, 6014 kPa, x2 = 0.7491 | 740.7
342.72 K, 7019 kPa, x2 = 0.7491 | 741.8
342.72 K, 8012 kPa, x2 = 0.7491 | 743
342.72 K, 9010 kPa, x2 = 0.7491 | 744.1
342.72 K, 10013 kPa, x2 = 0.7491 | 745.3
342.72 K, 11016 kPa, x2 = 0.7491 | 746.4
342.72 K, 12016 kPa, x2 = 0.7491 | 747.5
342.72 K, 13011 kPa, x2 = 0.7491 | 748.6
342.72 K, 14001 kPa, x2 = 0.7491 | 749.6
342.72 K, 15003 kPa, x2 = 0.7491 | 750.7
342.72 K, 16025 kPa, x2 = 0.7491 | 751.7
342.72 K, 17012 kPa, x2 = 0.7491 | 752.8
342.72 K, 18018 kPa, x2 = 0.7491 | 753.8
342.72 K, 19008 kPa, x2 = 0.7491 | 754.7
342.72 K, 20017 kPa, x2 = 0.7491 | 755.8
342.79 K, 1022 kPa, x2 = 0.4495 | 883.3
342.79 K, 2032 kPa, x2 = 0.4495 | 884.3
342.79 K, 3024 kPa, x2 = 0.4495 | 885.3
342.79 K, 4029 kPa, x2 = 0.4495 | 886.4
342.79 K, 5019 kPa, x2 = 0.4495 | 887.3
342.79 K, 6019 kPa, x2 = 0.4495 | 888.3
342.79 K, 7035 kPa, x2 = 0.4495 | 889.3
342.79 K, 8022 kPa, x2 = 0.4495 | 890.2
342.79 K, 9016 kPa, x2 = 0.4495 | 891.1
342.79 K, 10010 kPa, x2 = 0.4495 | 892
342.79 K, 11010 kPa, x2 = 0.4495 | 893
342.79 K, 12024 kPa, x2 = 0.4495 | 893.9
342.79 K, 13001 kPa, x2 = 0.4495 | 894.8
342.79 K, 14017 kPa, x2 = 0.4495 | 895.7
342.79 K, 15021 kPa, x2 = 0.4495 | 896.6
342.79 K, 16020 kPa, x2 = 0.4495 | 897.4
342.79 K, 17009 kPa, x2 = 0.4495 | 898.3
342.79 K, 18009 kPa, x2 = 0.4495 | 899.2
342.79 K, 19011 kPa, x2 = 0.4495 | 900
342.79 K, 20011 kPa, x2 = 0.4495 | 900.9
352.33 K, 1030 kPa, x2 = 0.2588 | 973.2
352.33 K, 2012 kPa, x2 = 0.2588 | 973.9
352.33 K, 3021 kPa, x2 = 0.2588 | 974.8
352.33 K, 4018 kPa, x2 = 0.2588 | 975.8
352.33 K, 5020 kPa, x2 = 0.2588 | 976.6
352.33 K, 6024 kPa, x2 = 0.2588 | 977.6
352.33 K, 7016 kPa, x2 = 0.2588 | 978.5
352.33 K, 8000 kPa, x2 = 0.2588 | 979.3
352.33 K, 9020 kPa, x2 = 0.2588 | 980.2
352.33 K, 10010 kPa, x2 = 0.2588 | 981
352.33 K, 11018 kPa, x2 = 0.2588 | 981.9
352.33 K, 12012 kPa, x2 = 0.2588 | 982.7
352.33 K, 13013 kPa, x2 = 0.2588 | 983.5
352.33 K, 14007 kPa, x2 = 0.2588 | 984.3
352.33 K, 15016 kPa, x2 = 0.2588 | 985.2
352.33 K, 16012 kPa, x2 = 0.2588 | 986
352.33 K, 17013 kPa, x2 = 0.2588 | 986.8
352.33 K, 18003 kPa, x2 = 0.2588 | 987.6
352.33 K, 19011 kPa, x2 = 0.2588 | 988.4
352.33 K, 20014 kPa, x2 = 0.2588 | 989.1
